Some results are limits rather than exact numbers.

This note sets out measurements from patent publication US20250136576A1, “Heterocyclic Compounds and Uses Thereof” (ACEA Therapeutics, Inc., priority 2021, published 2025).

One test concerns KM12-luc cells. The test is described as follows: Cell proliferation and growth inhibition assay (CCK-8) in KM12-luc. In kind it is cell-based. The note with it: KM12-Luc, 72 h, KM12-luc cells, treated with test compounds for 72 hrs, CCK-8 viability; read-out: NTRK IC50 in KM12-luc. An outline of the steps: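 Cells were grown at 37 °C, 5% CO2 with 10% FBS: MV-4-11 in IMDM, H1975 in RPMI 1640, KM12-luc in DMEM. Viability was read by CCK-8 (1-4 hrs reagent incubation, absorbance at OD450). IC50 came from a non-linear sigmoidal dose-response fit.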
Take `CC(=O)Nc1cc(Nc2ncc(F)c(-c3cn(C)c4cccc(F)c34)n2)ccc1N(C)CCN(C)C` [Compound 264, N-(2-((2-(dimethylamino)ethyl)(methyl)amino)-5-((5-fluoro-4-(4-fluoro-1-methyl-1H-indol-3-yl)pyrimidin-2-yl)amino)phenyl)acetamide]: the IC50 came to 1040 nM.
The same measure, in the same setting: with `CC(=O)Nc1cc(Nc2ncc(F)c(-c3cn(C)c4ccc(F)cc34)n2)ccc1N(C)CCN(C)C` [Compound 265, N-(2-((2-(dimethylamino)ethyl)(methyl)amino)-5-((5-fluoro-4-(5-fluoro-1-methyl-1H-indol-3-yl)pyrimidin-2-yl)amino)phenyl)acetamide] the figure was 414 nM; with `CC(=O)Nc1cc(Nc2ncc(F)c(-c3c[nH]c4cc(F)ccc34)n2)ccc1N(C)CCN(C)C` [Compound 266, N-(2-((2-(dimethylamino)ethyl)(methyl)amino)-5-((5-fluoro-4-(6-fluoro-1H-indol-3-yl)pyrimidin-2-yl)amino)phenyl)acetamide], 764 nM; with `CC(=O)Nc1cc(Nc2ncc(F)c(-c3cn(C)c4cc(F)ccc34)n2)ccc1N(C)CCN(C)C` [Compound 267, N-(2-((2-(dimethylamino)ethyl)(methyl)amino)-5-((5-fluoro-4-(6-fluoro-1-methyl-1H-indol-3-yl)pyrimidin-2-yl)amino)phenyl)acetamide], 303 nM.
The same measure, in the same setting: under `CC(=O)Nc1cc(Nc2ncc(F)c(-c3cn(C)c4cc(F)c(F)cc34)n2)ccc1N(C)CCN(C)C` [Compound 268, N-(5-((4-(5,6-difluoro-1-methyl-1H-indol-3-yl)-5-fluoropyrimidin-2-yl)amino)-2-((2-(dimethylamino)ethyl)(methyl)amino)phenyl)acetamide] stands 784 nM.
Still for that read-out and setting: with `CC(=O)Nc1cc(Nc2ncc(F)c(-c3cn(C)c4ccc(C)cc34)n2)ccc1N(C)CCN(C)C` [Compound 270, N-(5-((4-(1,5-dimethyl-1H-indol-3-yl)-5-fluoropyrimidin-2-yl)amino)-2-((2-(dimethylamino)ethyl)(methyl)amino)phenyl)acetamide] the figure was 1600 nM; with `COc1cccc2c1c(-c1nc(Nc3ccc(N(C)CCN(C)C)c(NC(C)=O)c3)ncc1F)cn2C` [Compound 271, N-(2-((2-(dimethylamino)ethyl)(methyl)amino)-5-((5-fluoro-4-(4-methoxy-1-methyl-1H-indol-3-yl)pyrimidin-2-yl)amino)phenyl)acetamide], 1480 nM; with `COc1cnc(Nc2ccc(N(C)CCN(C)C)c(NC(C)=O)c2)nc1-c1c[nH]c2ccccc12` [Compound 272a, N-(5-(4-(1H-indol-3-yl)-5-methoxypyrimidin-2-ylamino)-2-((2-(dimethylamino)ethyl)(methyl)amino)phenyl)acetamide], 41 nM.
Take `COc1cnc(-n2cc(-c3nc(Nc4ccc(N(C)CCN(C)C)c(NC(C)=O)c4)ncc3OC)c3ccccc32)nc1-c1c[nH]c2ccccc12` [Compound 272b, N-(5-(4-(1-(4-(1H-indol-3-yl)-5-methoxypyrimidin-2-yl)-1H-indol-3-yl)-5-methoxypyrimidin-2-ylamino)-2-((2-(dimethylamino)ethyl)(methyl)amino)phenyl)acetamide]: the IC50 came out at 2060 nM.
On the same count and under the same terms, under `CNc1cc(Nc2ncc(OC)c(-c3c[nH]c4ccccc34)n2)ccc1N(C)CCN(C)C` [Compound 273a, N^4-(4-(1H-indol-3-yl)-5-methoxypyrimidin-2-yl)-N1-(2-(dimethylamino)ethyl)-N^1,N^2-dimethylbenzene-1,2,4-triamine] stands 127 nM.
On the same count and under the same terms, under `CNc1cc(Nc2ncc(OC)c(-c3cn(-c4ncc(OC)c(-c5c[nH]c6ccccc56)n4)c4ccccc34)n2)ccc1N(C)CCN(C)C` [Compound 273b, N^4-(4-(1-(4-(1H-indol-3-yl)-5-methoxypyrimidin-2-yl)-1H-indol-3-yl)-5-methoxypyrimidin-2-yl)-N^1-(2-(dimethylamino)ethyl)-N^1,N^2-dimethylbenzene-1,2,4-triamine] stands 3320 nM.
On the same count and under the same terms, under `COc1cnc(Nc2ccc(N(C)CCN(C)C)c(NC(C)=O)c2)nc1-c1cn(C)c2ccccc12` [Compound 274, N-(2-((2-(dimethylamino)ethyl)(methyl)amino)-5-(5-methoxy-4-(1-methyl-1H-indol-3-yl)pyrimidin-2-ylamino)phenyl)acetamide] stands 128 nM.
As to `CNc1cc(Nc2ncc(OC)c(-c3cn(C)c4ccccc34)n2)ccc1N(C)CCN(C)C` [Compound 275, N^1-(2-(dimethylamino)ethyl)-N^4-(5-methoxy-4-(1-methyl-1H-indol-3-yl)pyrimidin-2-yl)-N^1,N^2-dimethylbenzene-1,2,4-triamine], the IC50 was determined as 600 nM.
Same read-out and setting: with `COc1cnc(Nc2ccc(N(C)CCN(C)C)c(NCC(F)(F)F)c2)nc1-c1cn(C)c2ccccc12` [Compound 276, N^1-(2-(dimethylamino)ethyl)-N^4-(5-methoxy-4-(1-methyl-1H-indol-3-yl)pyrimidin-2-yl)-N^1-methyl-N^2-(2,2,2-trifluoroethyl)benzene-1,2,4-triamine] the figure was 679 nM; with `COc1cnc(Nc2ccc(N(C)CCN(C)C)c(NC(C)=O)c2)nc1-c1cn(C)c2cccc(F)c12` [Compound 277, N-(2-((2-(dimethylamino)ethyl)(methyl)amino)-5-((4-(4-fluoro-1-methyl-1H-indol-3-yl)-5-methoxypyrimidin-2-yl)amino)phenyl)acetamide], 368 nM; with `COc1cnc(Nc2ccc(N(CCN(C)C)C(C)=O)c(NC(C)=O)c2)nc1-c1c[nH]c2c(F)cccc12` [Compound 278, N-(2-acetamido-4-((4-(7-fluoro-1H-indol-3-yl)-5-methoxypyrimidin-2-yl)amino)phenyl)-N-(2-(dimethylamino)ethyl)acetamide], 17.1 nM.
On the same count and under the same terms, with `COc1cnc(Nc2ccc(OCCN(C)C)c(NC(C)=O)c2)nc1-c1c[nH]c2c(F)cccc12` [Compound 279, N-(2-(2-(dimethylamino)ethoxy)-5-((4-(7-fluoro-1H-indol-3-yl)-5-methoxypyrimidin-2-yl)amino)phenyl)acetamide] the figure was 52.6 nM; with `COc1cnc(Nc2ccc(OCCN(C)C)c(N)c2)nc1-c1cn(C)c2c(F)cccc12` [Compound 283, 4-(2-(dimethylamino)ethoxy)-N^1-(4-(7-fluoro-1-methyl-1H-indol-3-yl)-5-methoxypyrimidin-2-yl)benzene-1,3-diamine], 86.4 nM.
For `COc1cnc(Nc2ccc(OCCN(C)C)c(NC(C)=O)c2)nc1-c1cn(C)c2c(C)cccc12` [Compound 285, N-(5-((4-(1,7-dimethyl-1H-indol-3-yl)-5-methoxypyrimidin-2-yl)amino)-2-(2-(dimethylamino)ethoxy)phenyl)acetamide], the IC50 turned out to be 99.6 nM.
As for `COc1cnc(Nc2ccc(N(CCN(C)C)C(C)=O)c(NC(C)=O)c2)nc1-c1c[nH]c2c(OC)cccc12` [Compound 286, N-(2-acetamido-4-((5-methoxy-4-(7-methoxy-1H-indol-3-yl)pyrimidin-2-yl)amino)phenyl)-N-(2-(dimethylamino)ethyl)acetamide], the IC50 stood at 14.6 nM.
The same measure, in the same setting: with `COc1cnc(Nc2ccc(OCCN(C)C)c(NC(C)=O)c2)nc1-c1c[nH]c2c(OC)cccc12` [Compound 287, N-(2-(2-(dimethylamino)ethoxy)-5-((5-methoxy-4-(7-methoxy-1H-indol-3-yl)pyrimidin-2-yl)amino)phenyl)acetamide] the figure was 21.9 nM.
Same read-out and setting: under `COc1cnc(Nc2ccc(N(C)CCN(C)C)c(NC(C)=O)c2)nc1-c1cn(C)nc1C` [Compound 289, N-(5-((4-(1,3-dimethyl-1H-pyrazol-4-yl)-5-methoxypyrimidin-2-yl)amino)-2-((2-(dimethylamino)ethyl)(methyl)amino)phenyl)acetamide] stands over 10000 nM.
On the same count and under the same terms, under `CNc1cc(Nc2ncc(OC)c(-c3cn(C)nc3C)n2)ccc1N(C)CCN(C)C` [Compound 290, N^4-(4-(1,3-dimethyl-1H-pyrazol-4-yl)-5-methoxypyrimidin-2-yl)-N1-(2-(dimethylamino)ethyl)-N^1,N^2-dimethylbenzene-1,2,4-triamine] stands over 10000 nM; under `COc1nc(Nc2ccc(N(C)CCN(C)C)c(NC(C)=O)c2)nc(-c2cn(C)c3ccccc23)c1OC` [Compound 291a, N-(5-((4,5-dimethoxy-6-(1-methyl-1H-indol-3-yl)pyrimidin-2-yl)amino)-2-((2-(dimethylamino)ethyl) (methyl)amino)phenyl)acetamide], 8660 nM.
Consider `COc1nc(Nc2cc(F)c(N(C)CCN(C)C)c(NC(C)=O)c2)nc(-c2cn(C)c3ccccc23)c1OC` [Compound 291b, N-(5-((4,5-dimethoxy-6-(1-methyl-1H-indol-3-yl)pyrimidin-2-yl)amino)-2-((2-(dimethylamino)ethyl)(methyl)amino)-3-fluorophenyl)acetamide], for which the IC50 turned out to be 1400 nM.
Same read-out and setting: under `CCN(CCN(C)C)c1ccc(Nc2nc(OC)c(OC)c(-c3cn(C)c4ccccc34)n2)cc1NC(C)=O` [Compound 291c, N-(5-((4,5-dimethoxy-6-(1-methyl-1H-indol-3-yl)pyrimidin-2-yl)amino)-2-((2-(dimethylamino)ethyl) (ethyl)amino)phenyl) acetamide] stands 2050 nM; under `CCN(CCN(C)C)c1c(F)cc(Nc2nc(OC)c(OC)c(-c3cn(C)c4ccccc34)n2)cc1NC(C)=O` [Compound 291d, N-(5-((4,5-dimethoxy-6-(1-methyl-1H-indol-3-yl)pyrimidin-2-yl)amino)-2-((2-(dimethylamino)ethyl) (ethyl)amino)-3-fluorophenyl)acetamide], 3270 nM.

Still in this test, the particulars now being: KM12-luc cells, treated with test compounds for 72 hrs, CCK-8 viability; read-out: NTRK IC50 in KM12-luc.
As for `CC(=O)Nc1cc(Nc2ncc(F)c(-c3c[nH]c4ccc(C)cc34)n2)ccc1N(C)CCN(C)C` [Compound 269, N—N-(2-((2-(dimethylamino)ethyl)(methyl)amino)-5-((5-fluoro-4-(5-methyl-1H-indol-3-yl)pyrimidin-2-yl)amino)phenyl)acetamide], the IC50 stood at 112 nM.
